Data as given in the NIST ThermoML archive (doi:10.1007/s10765-011-1128-2).
Numbers after ± are expanded uncertainties.

Conditions: Crystal

Q: With `O` [water] as the compound, how does the “vapor or sublimation pressure” value (223.15 K) read?
A: The value was 0.003925 ± 0.00011 kPa.

Q: What about the “vapor or sublimation pressure” value (228.15 K) of the same compound?
A: Its value is 0.007147 ± 0.00016 kPa.

Q: What about the “vapor or sublimation pressure” value (233.15 K) of the same compound?
A: Its value is 0.01277 ± 0.00026 kPa.

Q: And the “vapor or sublimation pressure” value (238.14 K)?
A: The value was 0.02221 ± 0.00034 kPa.

Q: What about the “vapor or sublimation pressure” value (243.16 K) of the same compound?
A: Its value is 0.03791 ± 0.00046 kPa.

Q: And the “vapor or sublimation pressure” value (248.16 K)?
A: Its value is 0.06315 ± 0.00066 kPa.

Q: What about the “vapor or sublimation pressure” value (253.14 K) of the same compound?
A: Its value is 0.103 ± 0.00097 kPa.

Q: And the “vapor or sublimation pressure” value (258.15 K)?
A: Its value is 0.165 ± 0.0012 kPa.

Q: And the “vapor or sublimation pressure” value (263.15 K)?
A: Its value is 0.2596 ± 0.0016 kPa.

Q: What about the “vapor or sublimation pressure” value (268.15 K) of the same compound?
A: Its value is 0.4016 ± 0.0022 kPa.

Q: And the “vapor or sublimation pressure” value (273.16 K)?
A: The value was 0.6117 ± 0.003 kPa.
